From ChEMBL document CHEMBL2413073, “Efficient construction of novel D-ring modified steroidal dienamides and their cytotoxic activities” (Eur J Med Chem, 2013)
Values after ≈ are worked out from the molar mass of the structure shown. Each block holds one compound with its values, some of them ahead of it.

Legend:
[1] = system: MGC-803; assay: Induction of apoptosis in human MGC803 cells assessed as necrotic cells at 4 uM after 24 hrs by AnnexinV/FITC-propidium iodide staining-based flow cytometry (reference value: 0.2%); type: functional
[2] = system: MGC-803; assay: Cell cycle arrest in human MGC803 cells assessed as accumulation at G0/G1 phase at 4 uM after 24 hrs by propidium iodide staining-based flow cytometry (reference value: 43.45%); type: functional
[3] = system: MGC-803; assay: Induction of apoptosis in human MGC803 cells assessed as early apoptotic cells at 8 uM after 24 hrs by AnnexinV/FITC-propidium iodide staining-based flow cytometry (reference value: 8.9%); type: functional
[4] = system: MGC-803; assay: Cell cycle arrest in human MGC803 cells assessed as accumulation at S phase at 8 uM after 24 hrs by propidium iodide staining-based flow cytometry (reference value: 26.67%); type: functional
[5] = system: MGC-803; assay: Cell cycle arrest in human MGC803 cells assessed as accumulation at S phase at 2 uM after 24 hrs by propidium iodide staining-based flow cytometry (reference value: 26.67%); type: functional
[6] = system: MGC-803; assay: Induction of apoptosis in human MGC803 cells assessed as viable cells at 8 uM after 24 hrs by AnnexinV/FITC-propidium iodide staining-based flow cytometry (reference value: 89.6%); type: functional; conditions: MGC-803, 24 h, read-out: Activity
[7] = system: MGC-803; assay: Induction of apoptosis in human MGC803 cells assessed as necrotic cells at 2 uM after 24 hrs by AnnexinV/FITC-propidium iodide staining-based flow cytometry (reference value: 0.2%); type: functional
[8] = system: MGC-803; assay: Cell cycle arrest in human MGC803 cells assessed as accumulation at G2/M phase after 24 hrs by propidium iodide staining-based flow cytometry; type: functional
[9] = system: MGC-803; assay: Cell cycle arrest in human MGC803 cells assessed as accumulation at G0/G1 phase at 2 uM after 24 hrs by propidium iodide staining-based flow cytometry (reference value: 43.45%); type: functional
[10] = system: MGC-803; assay: Induction of apoptosis in human MGC803 cells assessed as late apoptotic cells at 2 uM after 24 hrs by AnnexinV/FITC-propidium iodide staining-based flow cytometry (reference value: 1.2%); type: functional
[11] = system: MCF7; assay: cells; conditions: Homo sapiens, MCF7, 72 h
Description: Cytotoxicity against human MCF7 cells after 72 hrs by MTT assay

[12] = system: SMMC-7721; assay: Cytotoxicity against human SMMC7721 cells after 72 hrs by MTT assay; type: functional, cell-based; conditions: SMMC-7721, 72 h
[13] = system: MGC-803; assay: Cell cycle arrest in human MGC803 cells assessed as accumulation at S phase at 4 uM after 24 hrs by propidium iodide staining-based flow cytometry (reference value: 26.67%); type: functional
[14] = system: MGC-803; assay: Cell cycle arrest in human MGC803 cells assessed as accumulation at G0/G1 phase at 8 uM after 24 hrs by propidium iodide staining-based flow cytometry (reference value: 43.45%); type: functional
[15] = system: MGC-803; assay: Cytotoxicity against human MGC803 cells after 72 hrs by MTT assay; type: functional, cell-based; conditions: MGC-803, 72 h
[16] = system: MGC-803; assay: Induction of apoptosis in human MGC803 cells assessed as necrotic cells at 8 uM after 24 hrs by AnnexinV/FITC-propidium iodide staining-based flow cytometry (reference value: 0.2%); type: functional
[17] = Cytotoxicity against human EC109 cells after 72 hrs by MTT assay; type: functional, cell-based; conditions: ECa-109, 72 h
[18] = system: MGC-803; assay: Induction of apoptosis in human MGC803 cells assessed as early apoptotic cells at 2 uM after 24 hrs by AnnexinV/FITC-propidium iodide staining-based flow cytometry (reference value: 8.9%); type: functional
[19] = system: MGC-803; assay: Induction of apoptosis in human MGC803 cells assessed as viable cells at 2 uM after 24 hrs by AnnexinV/FITC-propidium iodide staining-based flow cytometry (reference value: 89.6%); type: functional; conditions: MGC-803, 24 h, read-out: Activity
[20] = system: MGC-803; assay: Induction of apoptosis in human MGC803 cells assessed as late apoptotic cells at 4 uM after 24 hrs by AnnexinV/FITC-propidium iodide staining-based flow cytometry (reference value: 1.2%); type: functional
[21] = system: MGC-803; assay: Induction of apoptosis in human MGC803 cells assessed as late apoptotic cells at 8 uM after 24 hrs by AnnexinV/FITC-propidium iodide staining-based flow cytometry (reference value: 1.2%); type: functional
[22] = system: MGC-803; assay: Cell cycle arrest in human MGC803 cells assessed as accumulation at G2/M phase at 8 uM after 24 hrs by propidium iodide staining-based flow cytometry (reference value: 20.41%); type: functional
[23] = system: MGC-803; assay: Cell cycle arrest in human MGC803 cells assessed as accumulation at G2/M phase at 4 uM after 24 hrs by propidium iodide staining-based flow cytometry (reference value: 20.41%); type: functional
[24] = system: PC-3; assay: Cytotoxicity against human PC3 cells after 72 hrs by MTT assay; type: functional, cell-based; conditions: PC-3, 72 h
[25] = system: MGC-803; assay: Cell cycle arrest in human MGC803 cells assessed as accumulation at G2/M phase at 2 uM after 24 hrs by propidium iodide staining-based flow cytometry (reference value: 20.41%); type: functional
[26] = system: MGC-803; assay: Induction of apoptosis in human MGC803 cells assessed as early apoptotic cells at 4 uM after 24 hrs by AnnexinV/FITC-propidium iodide staining-based flow cytometry (reference value: 8.9%); type: functional
[27] = system: MGC-803; assay: Induction of apoptosis in human MGC803 cells assessed as viable cells at 4 uM after 24 hrs by AnnexinV/FITC-propidium iodide staining-based flow cytometry (reference value: 89.6%); type: functional; conditions: MGC-803, 24 h, read-out: Activity
[28] = system: HT-29; assay: Cytotoxicity against human HT-29 cells; type: functional, cell-based
[29] = system: A549; assay: Cytotoxicity against human A549 cells; type: functional, cell-based
[30] = system: P388; assay: Cytotoxicity against mouse P388 cells; type: functional, cell-based
[31] = Cytotoxicity against human MEL28 cells; type: functional, cell-based; conditions: SK-MEL-28
[32] = system: MGC-803; assay: Ratio of 5-fluorouracil IC50 to compound IC50 for human MGC803 cells; type: functional
[33] = system: SMMC-7721; assay: Ratio of 5-fluorouracil IC50 to compound IC50 for human SMMC7721 cells; type: functional

SMILES: C=C1C[C@@H]2C/C=C/C(=O)C/C(C)=C\C=C\C(=O)O[C@H]([C@H](O)NC(=O)/C=C\C=C\C)C/C(C)=C/[C@H](C1)O2 [ZAMPANOLIDE]
IC50 [28]: 1 ng/mL (≈ 2.02 nM) | IC50 [29]: 1 ng/mL (≈ 2.02 nM) | IC50 [30]: 1 ng/mL (≈ 2.02 nM) | IC50 [31]: 1 ng/mL (≈ 2.02 nM)

SMILES: C[C@]12CC[C@H](O)CC1=CC[C@@H]1[C@@H]2CC[C@]2(C)C(=C(/C#N)C(N)=O)/C(=C/c3ccccc3F)C[C@@H]12
Ratio IC50 [33]: 5 | IC50 [11]: 6.58 µM | IC50 [12]: 1.9 µM | IC50 [15]: 2.69 µM | IC50 [17]: 14.6 µM | IC50 [24]: 13.3 µM

SMILES: C[C@]12CC[C@H](O)CC1=CC[C@@H]1[C@@H]2CC[C@]2(C)C(=C(/C#N)C(N)=O)/C(=C/c3ccc(Cl)c(Cl)c3)C[C@@H]12
IC50 [11]: 2.41 µM | IC50 [12]: 3.34 µM | IC50 [15]: 5.11 µM | IC50 [17]: 8.61 µM | IC50 [24]: 8.84 µM

SMILES: C[C@]12CC[C@H](O)CC1=CC[C@@H]1[C@@H]2CC[C@]2(C)C(=C(/C#N)C(N)=O)/C(=C/c3ccccc3Cl)C[C@@H]12
IC50 [11]: 5.34 µM | IC50 [12]: 3.63 µM | IC50 [15]: 5.13 µM | IC50 [17]: 13.2 µM | IC50 [24]: 16.9 µM

Now from value to compound, other results behind:

IC50 [11]: 3.85 µM
SMILES: CC(=O)O[C@H]1CC[C@@]2(C)C(=CC[C@@H]3[C@@H]2CC[C@]2(C)C(=C(/C#N)C(N)=O)/C(=C/c4ccc(Cl)cc4)C[C@@H]32)C1
Activity [1]: 2% | Activity [2]: 28.84% | Activity [3]: 80.9% | Activity [4]: 19.09% | Activity [5]: 15.68% | viability at 8 µM [6]: 1.9% | Activity [7]: 0.5% | Activity [8]: Dose-dependent effect | Activity [9]: 48.61% | Activity [10]: 4.4% | IC50 [12]: 3.9 µM | Activity [13]: 19.94% | Activity [14]: 21.6% | IC50 [15]: 1.54 µM | Activity [16]: 0.1% | IC50 [17]: 5.56 µM | Activity [18]: 18.7% | viability at 2 µM [19]: 76.3% | Activity [20]: 9.4% | Activity [21]: 17.1% | Activity [22]: 56.91% | Activity [23]: 49.43% | IC50 [24]: 11.5 µM | Activity [25]: 33.68% | Activity [26]: 35.9% | viability at 4 µM [27]: 52.7%

IC50 [11]: 39.4 µM
SMILES: CC(=O)O[C@H]1CC[C@@]2(C)C(=CC[C@@H]3[C@@H]2CC[C@]2(C)C(=C(/C#N)C(N)=O)/C(=C/c4ccco4)C[C@@H]32)C1
IC50 [12]: 22.9 µM | IC50 [15]: 0.12 µM | IC50 [17]: 39.4 µM | Ratio IC50 [32]: 57 | IC50 [24]: 23.4 µM

IC50 [11]: 4.77 µM
SMILES: CC(=O)O[C@H]1CC[C@@]2(C)C(=CC[C@@H]3[C@@H]2CC[C@]2(C)C(=C(/C#N)C(N)=O)/C(=C/c4ccc(F)c(F)c4)C[C@@H]32)C1
IC50 [12]: 5.66 µM | IC50 [15]: 1.56 µM | IC50 [17]: 3.05 µM | IC50 [24]: 8.48 µM

IC50 [11]: 3.98 µM
SMILES: CC(=O)O[C@H]1CC[C@@]2(C)C(=CC[C@@H]3[C@@H]2CC[C@]2(C)C(=C(/C#N)C(N)=O)/C(=C/c4ccc(Cl)cc4Cl)C[C@@H]32)C1
IC50 [12]: 5.04 µM | IC50 [15]: 7.38 µM | IC50 [17]: 5.24 µM | IC50 [24]: 24.3 µM

IC50 [11]: 8.36 µM
SMILES: COc1cccc(/C=C2\C[C@H]3[C@@H]4CC=C5C[C@@H](OC(C)=O)CC[C@]5(C)[C@H]4CC[C@]3(C)\C2=C(\C#N)C(N)=O)c1
IC50 [12]: 11.5 µM | IC50 [15]: 2.19 µM | IC50 [17]: 7.04 µM | IC50 [24]: 13 µM

IC50 [11]: 22.8 µM
SMILES: CC(=O)O[C@H]1CC[C@@]2(C)C(=CC[C@@H]3[C@@H]2CC[C@]2(C)C(=C(/C#N)C(N)=O)/C(=C/c4cccs4)C[C@@H]32)C1
IC50 [12]: 20.4 µM | IC50 [15]: 0.15 µM | IC50 [17]: 20.3 µM | Ratio IC50 [32]: 45 | IC50 [24]: 20.4 µM
